Test results from ChEMBL document CHEMBL4342415, “Inhibition of the Cytolytic Protein Perforin Prevents Rejection of Transplanted Bone Marrow Stem Cells in Vivo” (J Med Chem, 2020).
Each block holds one molecule with its values, some of them ahead of it. Active and inactive are the calls of the source. The calls are words filed in the database; no cut-off is given here.

How the values were obtained:
[1] = biological target: T1, Perforin-1 (Homo sapiens) (UniProt P14222); experiment: Inhibition of perforin in human KHYG-1 cells pre-treated with compound for 20 mins assessed as reduction in KHYG-1 cells-mediated cell lysis of human K562 cells at 20 uM measured after 4 hrs by 51Cr release based gamma counting method
T1 sequence (whole entry): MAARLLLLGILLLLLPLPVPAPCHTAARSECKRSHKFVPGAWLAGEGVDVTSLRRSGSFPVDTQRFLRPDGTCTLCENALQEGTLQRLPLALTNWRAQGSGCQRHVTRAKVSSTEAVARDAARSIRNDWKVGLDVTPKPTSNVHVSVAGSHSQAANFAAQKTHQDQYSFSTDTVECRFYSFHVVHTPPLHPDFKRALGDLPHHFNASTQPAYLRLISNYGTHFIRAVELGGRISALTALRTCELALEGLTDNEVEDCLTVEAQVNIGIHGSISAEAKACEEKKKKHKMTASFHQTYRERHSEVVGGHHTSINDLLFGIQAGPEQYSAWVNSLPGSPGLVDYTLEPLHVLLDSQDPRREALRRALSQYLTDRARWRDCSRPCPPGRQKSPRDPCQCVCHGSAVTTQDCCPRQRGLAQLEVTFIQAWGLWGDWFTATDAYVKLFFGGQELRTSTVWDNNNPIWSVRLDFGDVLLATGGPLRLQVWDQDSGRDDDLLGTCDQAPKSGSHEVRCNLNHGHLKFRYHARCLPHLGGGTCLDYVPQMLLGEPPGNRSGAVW

[2] = Stability in human liver microsomes assessed as parent compound remaining level at 3 uM pre-incubated for 30 mins before NADPH addition by LC-MS/MS analysis; type: ADME, Microsome; details: read-out: Stability
[3] = Stability in Sprague-Dawley rat liver microsomes assessed as parent compound remaining level at 3 uM pre-incubated for 30 mins before NADPH addition by LC-MS/MS analysis; type: ADME, Microsome; details: read-out: Stability
[4] = Stability in CD1 mouse liver microsomes assessed as parent compound remaining level at 3 uM pre-incubated for 30 mins before NADPH addition by LC-MS/MS analysis; type: ADME, Microsome; details: read-out: Stability
[5] = Solubility in water by HPLC analysis; type: physicochemical
[6] = Toxicity in human KHYG-1 cells assessed as cell viability at 10 uM after 24 h by trypan blue exclusion assay relative to control; type: cell-based; details: read-out: Activity
[7] = Cmax in CD1 mouse at 90 mg/kg, ip measured during 15 mins to 24 hrs by LC-MS/MS analysis; type: ADME, organism-based; parameters: dose 90 mg/kg, route intraperitoneal; details: in vivo
[8] = Unbound fraction in human KHYG-1 cell media; type: ADME
[9] = Half life in CD1 mouse at 90 mg/kg, ip measured during 15 mins to 24 hrs by LC-MS/MS analysis; type: ADME, organism-based; details: in vivo
[10] = Protein binding in CD1 mouse plasma at 10 uM incubated for 6 hrs by LC-MS/MS analysis and equilibrium dialysis; type: ADME, cell-free; details: read-out: PPB (converted)
[11] = AUC (0 to infinity) in CD1 mouse at 90 mg/kg, ip measured during 15 mins to 24 hrs by LC-MS/MS analysis; type: ADME, organism-based; parameters: dose 90 mg/kg, route intraperitoneal, time infinity; details: in vivo
[12] = Cmax in CD1 mouse at 150 mg/kg, ip measured during 15 mins to 24 hrs by LC-MS/MS analysis; type: ADME, organism-based; parameters: dose 150 mg/kg, route intraperitoneal; details: in vivo
[13] = AUC (0 to infinity) in CD1 mouse at 150 mg/kg, ip measured during 15 mins to 24 hrs by LC-MS/MS analysis; type: ADME, organism-based; parameters: dose 150 mg/kg, time infinity, route intraperitoneal; details: in vivo
[14] = Half life in CD1 mouse at 150 mg/kg, ip measured during 15 mins to 24 hrs by LC-MS/MS analysis; type: ADME, organism-based; details: in vivo
[15] = Stability Milli-Q water at 10 uM incubated for 24 hrs by LC-MS/MS analysis; type: physicochemical; details: read-out: Stability
[16] = (§1) Toxicity in B6 mouse model of bone marrow transplantation receiving both allogeneic MHC- mismatched BALB/c stem cells and syngeneic MHC-matched B6 stem cells assessed as drug tolerability at 125 mg/kg, ip dosed immediately prior to cell transfer and 18 hrs after cell transfer and measured after 24 hrs relative to control; type: organism-based; details: in vivo
[17] = Time at which unbound plasma concentration stays above IC50 in C57BL/6 mouse at 90 mg/kg, ip; type: ADME, organism-based; details: in vivo
Mus musculus [18] = experiment: as §1, with “Suppression of bone marrow transplant rejection” for “Toxicity”, “reduction in perforin-dependent NK cell-mediated graft rejection in peripheral blood” for “drug tolerability”; type: functional; parameters: scale not given: the % may be the effect or the level left
Mus musculus [19] = experiment: as §1, with “Suppression of bone marrow transplant rejection” for “Toxicity”, “reduction in perforin-dependent NK cell-mediated graft rejection in spleen” for “drug tolerability”; type: functional; parameters: scale not given: the % may be the effect or the level left
[20] = Cmax in CD1 mouse at 75 mg/kg, ip measured during 15 mins to 24 hrs by LC-MS/MS analysis; type: ADME, organism-based; parameters: dose 75 mg/kg, route intraperitoneal; details: in vivo
[21] = Half life in CD1 mouse at 75 mg/kg, ip measured during 15 mins to 24 hrs by LC-MS/MS analysis; type: ADME, organism-based; details: in vivo
[22] = AUC (0 to infinity) in CD1 mouse at 75 mg/kg, ip measured during 15 mins to 24 hrs by LC-MS/MS analysis; type: ADME, organism-based; parameters: dose 75 mg/kg, route intraperitoneal, time infinity; details: in vivo

SMILES: O=C1c2ccc(-c3ccc(-c4cncc(NS(=O)(=O)c5ccc(F)cc5F)c4)s3)cc2CN1CC(O)CO (configuration not stated)
- inhibition [1]: inactive

SMILES: COc1ncc(-c2ccc(-c3cnc4c(c3)CN(C)C4=O)s2)cc1[N-]S(=O)(=O)c1ccccc1C(F)(F)F.[Na+]
- remaining at 3 µM [2]: 63%
- remaining at 3 µM [3]: 50%
- remaining at 3 µM [4]: 91%
- solubility [5]: 7340 µg/mL

SMILES: O=C1c2ccc(-c3ccc(-c4cncc(NS(=O)(=O)c5ccc(F)cc5F)c4)s3)cc2CN1CCCO
- inhibition [1]: inactive

SMILES: O=C1NCc2ncc(-c3ccc(-c4cncc(NS(=O)(=O)c5ccc(F)cc5F)c4)s3)cc21 [listing 1 of 2 here]
- inhibition [1]: 40%

SMILES: O=C1NCc2ncc(-c3ccc(-c4cncc(NS(=O)(=O)c5ccc(F)cc5F)c4)s3)cc21 [listing 2 of 2 here]
- Cmax [12]: 1320 µM
- AUC(0-inf) [13]: 7670 µM·h
- viability at 24 h, 10 µM [6]: 100%
- half-life [14]: 5.5 h
- fraction unbound at 6 h, 10 µM [10]: 0.0011

SMILES: O=C1c2ccc(-c3ccc(-c4cncc(NS(=O)(=O)c5ccc(F)cc5F)c4)s3)cc2CN1CCN1CCOCC1
- inhibition [1]: inactive

SMILES: COc1ncc(-c2ccc(-c3cnc4c(c3)CN(C)C4=O)s2)cc1[N-]S(=O)(=O)c1ccc(F)cc1F.[Na+]
- remaining at 3 µM [2]: 75%
- remaining at 24 h, 10 µM [15]: 100%
- remaining at 3 µM [3]: 100%
- remaining at 3 µM [4]: 100%
- solubility [5]: 18300 µg/mL

SMILES: CN(C)CCN1Cc2cc(-c3ccc(-c4cncc(NS(=O)(=O)c5ccc(F)cc5F)c4)s3)ccc2C1=O
- inhibition [1]: inactive

SMILES: O=C1c2ccc(-c3ccc(-c4cncc(NS(=O)(=O)c5ccc(F)cc5F)c4)s3)cc2CN1CCN1CCCC1
- inhibition [1]: inactive

SMILES: O=C1NCc2cc(-c3ccc(-c4cncc(NS(=O)(=O)c5ccc(F)cc5F)c4)s3)cnc21
- viability at 24 h, 10 µM [6]: 49%

SMILES: CN1Cc2cc(-c3ccc(-c4cncc([N-]S(=O)(=O)c5ccccc5C(F)(F)F)c4)s3)cnc2C1=O.[Na+]
- remaining at 3 µM [2]: 56%
- remaining at 3 µM [3]: 36%
- remaining at 3 µM [4]: 86%
- solubility [5]: 4280 µg/mL

SMILES: O=C1NCc2ncc(-c3ccc(-c4cncc([N-]S(=O)(=O)c5ccc(F)cc5F)c4)s3)cc21.[Na+]
- remaining at 3 µM [2]: 95%
- remaining at 24 h, 10 µM [15]: 93%
- remaining at 3 µM [3]: 100%
- remaining at 3 µM [4]: 83%
- solubility [5]: 3770 µg/mL

SMILES: COc1ncc(-c2ccc(-c3cnc4c(c3)CN(C)C4=O)s2)cc1NS(=O)(=O)c1ccccc1[N+](=O)[O-]
- viability at 24 h, 10 µM [6]: 95.8%
- Cmax [20]: 637 µM
- half-life [21]: 1.6 h
- fraction unbound at 6 h, 10 µM [10]: 0.0009
- AUC(0-inf) [22]: 2240 µM·h

SMILES: COc1ncc(-c2ccc(-c3cnc4c(c3)CN(C)C4=O)s2)cc1NS(=O)(=O)c1ccccc1C(F)(F)F
- viability at 24 h, 10 µM [6]: 95.8%

SMILES: CN1Cc2cc(-c3ccc(-c4cncc(NS(=O)(=O)c5cccc(C(F)(F)F)c5)c4)s3)cnc2C1=O [listing 1 of 2 here]
- viability at 24 h, 10 µM [6]: 97.8%

SMILES: CN1Cc2cc(-c3ccc(-c4cncc(NS(=O)(=O)c5cccc(C(F)(F)F)c5)c4)s3)cnc2C1=O [listing 2 of 2 here]
- inhibition [1]: 40%

SMILES: CN1Cc2cc(-c3ccc(-c4cncc(NS(=O)(=O)c5ccccc5C(F)(F)F)c4)s3)cnc2C1=O
- viability at 24 h, 10 µM [6]: 100%

More lines, main results first:

- inhibition [1]: inactive
SMILES: O=C1c2ccc(-c3ccc(-c4cncc(NS(=O)(=O)c5ccc(F)cc5F)c4)s3)cc2CN1CCN1CCCCC1

- solubility [5]: 1130 µg/mL
SMILES: O=C1NCc2cc(-c3ccc(-c4cncc([N-]S(=O)(=O)c5ccc(F)cc5F)c4)s3)cnc21.[Na+]

- Cmax [7]: 860 µM
- fraction unbound [8]: 0.456
- half-life [9]: 6.8 h
- fraction unbound at 6 h, 10 µM [10]: 0.0006
- AUC(0-inf) [11]: 10400 µM·h
SMILES: CN1Cc2cc(-c3ccc(-c4cncc(NS(=O)(=O)c5ccc(F)cc5F)c4)s3)cnc2C1=O
- viability at 24 h, 10 µM [6]: 99.6%

- remaining at 3 µM [2]: 80%
- remaining at 24 h, 10 µM [15]: 100%
- remaining at 3 µM [3]: 100%
- remaining at 3 µM [4]: 100%
- solubility [5]: 20300 µg/mL
SMILES: CN1Cc2cc(-c3ccc(-c4cncc([N-]S(=O)(=O)c5ccc(F)cc5F)c4)s3)cnc2C1=O.[Na+]

- Cmax [7]: 1310 µM
- fraction unbound [8]: 0.255
- half-life [9]: 18.9 h
- Time [17]: 5 to 6 h
- fraction unbound at 6 h, 10 µM [10]: 0.0009
- AUC(0-inf) [11]: 42500 µM·h
SMILES: COc1ncc(-c2ccc(-c3cnc4c(c3)CN(C)C4=O)s2)cc1NS(=O)(=O)c1ccc(F)cc1F
- viability at 24 h, 10 µM [6]: 90.6%
- Activity [16]: Non-Toxic
- Activity (Mus musculus [18]): 66%
- Activity (Mus musculus [19]): 66%

- remaining at 3 µM [2]: 94%
- remaining at 24 h, 10 µM [15]: 100%
- remaining at 3 µM [3]: 80%
- remaining at 3 µM [4]: 95%
- solubility [5]: 4810 µg/mL
SMILES: COc1ncc(-c2ccc(-c3cnc4c(c3)CN(C)C4=O)s2)cc1[N-]S(=O)(=O)c1ccccc1[N+](=O)[O-].[Na+]

- remaining at 3 µM [2]: 46%
- remaining at 3 µM [3]: 84%
- remaining at 3 µM [4]: 88%
- solubility [5]: 20300 µg/mL
SMILES: CN1Cc2cc(-c3ccc(-c4cncc([N-]S(=O)(=O)c5cccc(C(F)(F)F)c5)c4)s3)cnc2C1=O.[Na+]

- inhibition [1]: inactive
SMILES: CN1CCN(CCN2Cc3cc(-c4ccc(-c5cncc(NS(=O)(=O)c6ccc(F)cc6F)c5)s4)ccc3C2=O)CC1
